Consider one molecule from patent US6953570B2, “Porphyrins with enhanced multi-photon absorption cross-sections for photodynamic therapy” (Montana State University, priority 2001, dated 2005).

This assay in a line: Singlet oxygen 1Δg→3Σg luminescence after two-photon excitation of the photosensitizer. Format: physicochemical. Conditions: air-saturated toluene solution, Ti:sapphire regenerative amplifier output 780 nm. The method, then: As illustrated in FIG. 4(a), the ^1Δg→^3Σg luminescence spectra of molecular oxygen in an air-saturated toluene solution of compound I after both one- and two-photon excitation were measured. The one-photon excitation is represented by the dashed line and the two-photon excitation is shown by the solid line. Both spectra are normalized to unity. For one photon excitation, second harmonics of a Ti:sapphire regenerative amplifier, 390 nm, with an average power intensity of 0.5 W/cm^2 were used, while for two-photon excitation, the output of a Ti:sapphire regenerative amplifier, 780 nm, with an average power intensity of 15 W/cm^2 was used. In both cases, the laser beam was slightly focused into a 1-cm cell to give a cylindrical irradiated volume of ˜1.5 mm diameter. The singlet oxygen luminescence spectrum was measured with a nitrogen-cooled Ge detector coupled with Jobin-Yvon monochromator and a lock-in amplifier.
FIG. 4(b) graphs the dependence of the ^1Δg→^3Σg luminescence intensity (lΔ) on the average illumination intensity, P, of molecular oxygen in an air-saturated toluene solution of compound I after two-photon excitation. The raw experimental data are shown by black squares, with the best power-law fit, lΔ=aP^n with n=2.1±0.1 shown by the dotted line.

Regarding `Clc1cccc(Cl)c1-c1c2nc(cc3ccc([nH]3)c(-c3ccc(C=Cc4ccc(N(c5ccccc5)c5ccccc5)cc4)cc3)c3nc(cc4ccc1[nH]4)C=C3)C=C2` [Compound I, 5-[4′″-(diphenylamino)-4″-stilbenyl]-15-[2′,6′-dichlorophenyl]-21H, 23H-porphyrin], the “exponent n of best power-law fit lΔ=aP^n (1Δg→3Σg luminescence intensity lΔ versus average illumination intensity P)” value was 2.1±0.1.
